Reference: patent US20260265178A1, “TERTIARY AMINE DERIVATIVES AND THEIR USES FOR TREATING A VIRAL INFECTION” (ENYO PHARMA, priority 2022, published 2026)

tested on: recombinant HRSV expressing the firefly luciferase; experiment: In vivo anti-hRSV activity in a mouse model of infection (recombinant HRSV expressing firefly luciferase, bioluminescence); conditions: BALB/C mice, 1 mpk intranasally, 5 days post infection, versus mock-treated, p<0.05
Description: FIG. 24: In vivo evaluation of compound #21 anti-hRSV activity in a mouse model of infection. FIG. 24A: Bioluminescence was measured by intranasal injection of 50 μl of D-luciferin (200 mM) and capture of photon emission from the chest at 5 days post infection using the IVIS system. Dorsal and ventral views of mice representative of the results are shown. FIG. 24B: Comparative bioluminescence between compound #21 and mock-treated mice 5 days post infection. Each data point represents mean±s.e.m. Brown-Forsythe Test and Welch ANOVA followed by Dunnett's multiple comparison test; * p<0.05
An engineered recombinant HRSV expressing the firefly luciferase was used in a mouse model of infection described in Rameix-Welti et al., Nature Communications, 2014. BALB/C mice were infected with 50×10^4 p.f.u. of virus and treated intranasally by 1 mpk compound #21 or vehicle (10 mice/group). Bioluminescence was measured by intranasal injection of 50 μl of D-luciferin (200 mM) and capture of photon emission from the chest at 5 days post infection using the IVIS system.
Dorsal and ventral views of mice representative of the results are shown at FIG. 24A. Comparative bioluminescence between compound #21 and mock-treated mice 5 days post infection are shown at FIG. 24B. Each data point represents mean±s.e.m. Brown-Forsythe Test and Welch ANOVA followed by Dunnett's multiple comparison test; * p<0.05.

| Compound | bioluminescent signal in the lung |
| --- | --- |
| COC[C@H](c1cccc(C(N)=O)c1)N(Cc1cccc(C(N)=O)c1)Cc1cccc(C(N)=O)c1 [Compound #21, 3-[[[(1S)-1-(3-carbamoylphenyl)-2-methoxy-ethyl]-[(3-carbamoylphenyl)methyl]amino]methyl]benzamide] | significantly reduced |

tested on: Respiratory Syncytial Virus (RSV); experiment: Cytopathic effect (CPE) assay, HEp-2 cells infected by RSV, CellTiter-Glo viability readout; type: cell-based; conditions: HEp-2 cells, RSV MOI 0.5, 3 days, CellTiter-Glo luminescence
Description: Cytopathic Effect (CPE) Assay Experimental Procedure:
• RSV titer: 6.9×10^6 pfu/ml • MOI=pfu used for infection/cell number • 1) HEp-2 cells were seeded in 384-well plates at 5000 cells per well in 25 μl assay medium and incubated for 24 h at 37° C. in 5% CO2. Cells were seeded in each well expect for the top row, which contains medium only (low control). • 2) Compounds were dispensed using the Echo550 Liquid Handler. All compounds were used at 10 mM stock concentration. The positive control Ribavirin was included as control compound in all assays. • 3) Cells were expected to double once over 24 h. • 4) The cells were infected the next day at RSV MOI 0.5, adding 5 μl virus diluted in assay medium. • 5) Non-infected cells were treated with 5 μl assay medium (high control) • 6) Plates were centrifuged at 400 rpm, 10 sec to allow the virus to sink onto the cells. • 7) Cells were incubated at 37° C. in 5% CO2 for 3 days. • 8) 10 μl CellTiter-Glo® (Promega) was added to all wells. • 9) The plate was incubated at RT for 30 min. • 10) Luminescence was measured on the Envision plate reader.

| Compound | IC50 |
| --- | --- |
| NC(=O)c1cccc(CN(Cc2cccc(C(N)=O)c2)CC2CCN(C(N)=O)C2)c1 (stereo not drawn) [Compound #17] | Not calculable |

same assay, conditions: HEp-2 cells, RSV MOI 0.5, 3 days, CellTiter-Glo luminescence; read-out: IC50

| Compound | IC50 [nM] |
| --- | --- |
| COC[C@H](c1cccc(Br)c1)N(Cc1cccc(C(=O)OC)c1)Cc1cccc(C(=O)OC)c1 [Compound #4] | 7 |
| COC(=O)c1cccc(CN(Cc2cccc(C(=O)OC)c2)[C@H](CO)c2cccc(Br)c2)c1 [Compound #3] | 3400 |
| COC[C@H](c1cccc(C(=O)O)c1)N(Cc1cccc(C(=O)OC)c1)Cc1cccc(C(=O)OC)c1 [Compound #5] | 2000 |
| COC[C@H](c1cccc(C(=O)O)c1)N(Cc1cccc(C(=O)O)c1)Cc1cccc(C(=O)O)c1 [Compound #6] | 200 |

same assay, conditions: compared with comparative and positive control compounds, FIGS. 1-23A

| Compound | % viability of cells infected by RSV |
| --- | --- |
| COC[C@H](c1cccc(C(N)=O)c1)N(Cc1cccc(C(N)=O)c1)Cc1cccc(C(N)=O)c1 [Compound #21, 3-[[[(1S)-1-(3-carbamoylphenyl)-2-methoxy-ethyl]-[(3-carbamoylphenyl)methyl]amino]methyl]benzamide] | higher % of viability |

same assay, conditions: compound #21 versus comparative compounds

| Compound | IC50 times lower than IC50 of comparative compounds [times] |
| --- | --- |
| COC[C@H](c1cccc(C(N)=O)c1)N(Cc1cccc(C(N)=O)c1)Cc1cccc(C(N)=O)c1 [Compound #21, 3-[[[(1S)-1-(3-carbamoylphenyl)-2-methoxy-ethyl]-[(3-carbamoylphenyl)methyl]amino]methyl]benzamide] | ≥ 7 |

same assay, conditions: compound #21 versus compound #4

| Compound | IC50 times lower than IC50 of the closest structural compound #4 |
| --- | --- |
| COC[C@H](c1cccc(C(N)=O)c1)N(Cc1cccc(C(N)=O)c1)Cc1cccc(C(N)=O)c1 [Compound #21, 3-[[[(1S)-1-(3-carbamoylphenyl)-2-methoxy-ethyl]-[(3-carbamoylphenyl)methyl]amino]methyl]benzamide] | around 50 times |

same assay, conditions: human respiratory syncytial virus, 72 h; HEp-2 cells, RSV MOI 0.5, 3 days, CellTiter-Glo luminescence; read-out: IC50

| Compound | IC50 [nM] |
| --- | --- |
| NC(=O)c1cccc(CN(Cc2cccc(C(N)=O)c2)CC2(F)CCCN(C(N)=O)C2)c1 (stereo not drawn) [Compound #20] | 130 |
| COc1cc(CN(Cc2cccc(C(N)=O)c2)Cc2cccc(C(N)=O)c2)cc(C(N)=O)c1 [Compound #14] | 70 |
| COc1ccc(CN(Cc2cccc(C(N)=O)c2)Cc2cccc(C(N)=O)c2)cc1C(N)=O [Compound #10] | 5 |
| CC(c1cccc(C(N)=O)c1)N(Cc1cccc(C(N)=O)c1)Cc1cccc(C(N)=O)c1 (stereo not drawn) [Compound #15] | 1.5 |
| CNC(=O)COCCN(Cc1cccc(C(N)=O)c1)Cc1cccc(C(N)=O)c1 [Compound #9] | 2000 |
| Cc1cn2nc([C@@H]3CCCCN3C(=O)c3cc(Cl)ccc3NS(C)(=O)=O)cc2nc1N1CC[C@H](N)C1 [Presatovir] | 1.1 |
| NC(=O)c1cccc(CN(Cc2cccc(C(N)=O)c2)CC2CCCN(C(N)=O)C2)c1 (stereo not drawn) [Compound #18] | 8 |
| NC(=O)c1cccc(CN(Cc2cccc(C(N)=O)c2)Cc2ccc3[nH]ncc3c2)c1 [Compound #7] | 3900 |
| NC(=O)COCCN(Cc1cccc(C(N)=O)c1)Cc1cccc(C(N)=O)c1 [Compound #16] | 350 |
| NC(=O)c1ncn([C@@H]2O[C@H](CO)[C@@H](O)[C@H]2O)n1 [Ribavirin] | 15000 |
| C[C@@H](c1cccc(C(N)=O)c1)N(Cc1cccc(C(N)=O)c1)Cc1cccc(C(N)=O)c1 [Compound #13] | 4.4 |
| NC(=O)c1cccc(CN(Cc2cccc(C(N)=O)c2)C[C@H]2CCCN(C(N)=O)C2)c1 [Compound #11] | 4.5 |
| NC(=O)c1cccc(CN(Cc2cccc(C(N)=O)c2)CC2CCCNC2)c1 (stereo not drawn) [Compound #12] | 130 |
| NC(=O)c1cccc(CN(Cc2cccc(C(N)=O)c2)C[C@@H]2CCCN(C(N)=O)C2)c1 [Compound #8] | 100 |
| COC[C@H](c1cccc(C(N)=O)c1)N(Cc1cccc(C(N)=O)c1)Cc1cccc(C(N)=O)c1 [Compound #21, 3-[[[(1S)-1-(3-carbamoylphenyl)-2-methoxy-ethyl]-[(3-carbamoylphenyl)methyl]amino]methyl]benzamide] | 0.15 |
